# Test results published in the supplement of paper PMC10307832.
# Experiments:
# Assay in all cases: relative viability (nuclei count vs DMSO), 5 days (fraction); higher = more cells survive
# [1] = compound: CCN(CCO)CCCC(C)Nc1ccnc2cc(Cl)ccc12 [Hydroxychloroquine] + CS(=O)(=O)N1CCN(Cc2cc3nc(-c4cccc5[nH]ncc45)nc(N4CCOCC4)c3s2)CC1 [Pictilisib] (partner 1 µM)
# Summary of the method: (§1)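 The day after seeding in 1536-well plates, lung cancer cell lines were treated by pin tool with a single drug, or with a fixed anchor-drug dose together with five library-drug doses (not always all listed) in √10 steps. After 5 days, a combined fix-and-stain solution (final 0.05% Triton X-100, 1% formaldehyde, 1 ug/ml Hoechst) was added. Nuclei counted on 4× images gave relative viability as treated counts over vehicle counts, reported as the median of duplicate plates.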
# [2] = compound: CCN(CCO)CCCC(C)Nc1ccnc2cc(Cl)ccc12 [Hydroxychloroquine] + CC(=O)c1c(C)c2cnc(Nc3ccc(N4CCNCC4)cn3)nc2n(C2CCCC2)c1=O [Palbociclib] (partner 0.5 µM)
# Summary of the method: as §1
# [3] = compound: CCN(CCO)CCCC(C)Nc1ccnc2cc(Cl)ccc12 [Hydroxychloroquine] + Nc1ncn([C@H]2C[C@H](O)[C@@H](CO)O2)c(=O)n1 [Decitabine] (partner 2 µM)
# Summary of the method: as §1
# [4] = compound: CCN(CCO)CCCC(C)Nc1ccnc2cc(Cl)ccc12 [Hydroxychloroquine] + N=C(N)NC(=N)NCCc1ccccc1 [Phenformin] (partner 250 µM)
# Summary of the method: as §1
Cell Line,relative viability ([1]; first compound 0.5 µM),relative viability ([1]; first compound 1.581 µM),relative viability ([1]; first compound 5 µM),relative viability ([1]; first compound 15.81 µM),relative viability ([1]; first compound 50 µM),relative viability ([2]; first compound 0.5 µM),relative viability ([2]; first compound 1.581 µM),relative viability ([2]; first compound 5 µM),relative viability ([2]; first compound 15.81 µM),relative viability ([2]; first compound 50 µM),relative viability ([3]; first compound 0.5 µM),relative viability ([3]; first compound 1.581 µM),relative viability ([3]; first compound 5 µM),relative viability ([3]; first compound 15.81 µM),relative viability ([3]; first compound 50 µM),relative viability ([4]; first compound 0.5 µM),relative viability ([4]; first compound 1.581 µM),relative viability ([4]; first compound 5 µM),relative viability ([4]; first compound 15.81 µM),relative viability ([4]; first compound 50 µM)
SW 1573,0.484,0.392,0.535,0.528,0.603,0.369,0.359,0.374,0.34,0.38,0.444,0.296,0.409,0.554,0.428,0.356,0.333,0.402,0.402,0.368
BEN,0.615,0.465,0.49,0.6,0.676,0.482,0.434,0.439,0.473,0.469,0.764,0.649,0.64,0.75,0.636,0.255,0.26,0.234,0.241,0.303
LC-2-ad,0.321,0.395,0.463,0.546,0.436,0.454,0.454,0.486,0.555,0.476,0.732,0.777,0.776,0.744,0.854,0.587,0.521,0.573,0.632,0.54
COR-L23,0.585,0.84,0.875,0.899,0.968,0.215,0.232,0.309,0.299,0.307,0.451,0.452,0.397,0.416,0.534,0.445,0.467,0.496,0.49,0.485
NCI-H1650,0.558,0.578,0.49,0.542,0.599,0.291,0.341,0.317,0.323,0.355,0.315,0.391,0.419,0.36,0.36,0.473,0.507,0.404,0.402,0.303
SK-LU-1,0.567,0.529,0.568,0.474,0.543,0.381,0.382,0.432,0.361,0.431,0.605,0.631,0.664,0.557,0.762,0.505,0.528,0.544,0.538,0.429
NCI-H1915,0.973,0.869,0.947,0.895,0.978,0.532,0.495,0.559,0.568,0.542,0.252,0.247,0.273,0.252,0.263,0.347,0.36,0.361,0.383,0.369
NCI-H647,0.514,0.323,0.335,0.357,0.476,0.418,0.439,0.41,0.282,0.366,0.369,0.438,0.446,0.388,0.444,0.503,0.556,0.441,0.63,0.661
NCI-H2009,0.844,0.776,0.901,0.803,0.989,0.195,0.209,0.212,0.237,0.197,0.353,0.397,0.403,0.353,0.377,0.502,0.475,0.491,0.486,0.469
NCI-H2126,0.525,0.433,0.485,0.467,0.542,0.34,0.341,0.34,0.333,0.379,0.584,0.547,0.57,0.579,0.566,0.528,0.534,0.56,0.521,0.506
LXF-289,0.765,0.819,0.797,0.736,0.769,0.577,0.588,0.656,0.575,0.602,0.411,0.395,0.338,0.366,0.357,0.533,0.513,0.517,0.505,0.495
HCC-44,0.475,0.61,0.588,0.552,0.661,0.952,1.03,1.01,1.04,1.03,0.966,0.978,0.974,0.939,0.914,0.316,0.145,0.171,0.226,0.234
PC-3 [JPC-3],0.79,0.696,0.693,0.674,0.784,0.538,0.576,0.59,0.561,0.511,0.814,0.767,0.805,0.792,0.761,0.448,0.457,0.448,0.432,0.507
HOP-62,0.682,0.643,0.722,0.854,0.515,0.486,0.429,0.444,0.487,0.548,0.209,0.239,0.206,0.207,0.206,0.557,0.603,0.762,0.686,0.755
NCI-H358,0.32,0.274,0.281,0.327,0.328,0.13,0.126,0.137,0.122,0.137,0.208,0.203,0.217,0.21,0.201,0.345,0.284,0.314,0.32,0.323
SK-MES-1,0.4,0.373,0.321,0.342,0.359,0.365,0.319,0.332,0.368,0.343,0.389,0.304,0.419,0.361,0.366,0.668,0.741,0.723,0.693,0.635
NCI-H1666,0.519,0.409,0.377,0.477,0.402,0.651,0.67,0.653,0.646,0.622,0.707,0.691,0.759,0.792,0.635,0.601,0.551,0.586,0.562,0.554

Cell Line,relative viability ([1]; first compound 0.5 µM),relative viability ([1]; first compound 1.581 µM),relative viability ([1]; first compound 5 µM),relative viability ([1]; first compound 15.81 µM),relative viability ([1]; first compound 50 µM),relative viability ([2]; first compound 0.5 µM),relative viability ([2]; first compound 1.581 µM),relative viability ([2]; first compound 5 µM),relative viability ([2]; first compound 15.81 µM),relative viability ([2]; first compound 50 µM),relative viability ([3]; first compound 0.5 µM),relative viability ([3]; first compound 1.581 µM),relative viability ([3]; first compound 5 µM),relative viability ([3]; first compound 15.81 µM),relative viability ([3]; first compound 50 µM),relative viability ([4]; first compound 0.5 µM),relative viability ([4]; first compound 1.581 µM),relative viability ([4]; first compound 5 µM),relative viability ([4]; first compound 15.81 µM),relative viability ([4]; first compound 50 µM)
NCI-H1355,0.475,0.362,0.461,0.485,0.471,0.41,0.365,0.392,0.387,0.379,0.319,0.344,0.369,0.371,0.338,0.431,0.408,0.457,0.442,0.425
HCC-827,1.01,0.899,0.755,0.98,1.06,0.413,0.456,0.467,0.466,0.521,0.323,0.302,0.317,0.301,0.279,0.447,0.339,0.359,0.395,0.414
HARA,0.316,0.383,0.508,0.407,0.362,0.239,0.292,0.26,0.302,0.23,0.492,0.539,0.524,0.534,0.519,0.475,0.406,0.519,0.442,0.465
HCC-366,0.202,0.13,0.198,0.18,0.148,0.324,0.406,0.366,0.381,0.665,0.314,0.348,0.315,0.316,0.34,0.564,0.558,0.597,0.605,0.657
NCI-H322M,0.533,0.438,0.475,0.515,0.524,0.484,0.43,0.431,0.482,0.457,0.66,0.698,0.732,0.665,0.637,0.704,0.799,0.786,0.743,0.744
NCI-H2347,0.511,0.534,0.573,0.6,0.637,0.457,0.418,0.414,0.515,0.383,0.658,0.536,0.618,0.573,0.636,0.469,0.466,0.446,0.329,0.377
NCI-H1975,0.292,0.26,0.305,0.263,0.328,0.47,0.53,0.603,0.615,0.789,0.384,0.372,0.378,0.408,0.415,0.41,0.37,0.378,0.408,0.396
NCI-H441,0.488,0.532,0.535,0.38,0.428,0.217,0.187,0.185,0.192,0.204,0.23,0.326,0.241,0.245,0.228,0.922,0.726,0.815,0.94,0.944
ABC-1,0.75,0.761,0.783,0.815,0.737,0.726,0.776,0.909,0.793,0.714,1.15,1.1,1.09,1.35,0.906,0.244,0.205,0.237,0.192,0.206
A-427,0.713,0.624,0.674,0.585,0.628,0.499,0.474,0.483,0.512,0.493,0.539,0.551,0.585,0.509,0.479,0.316,0.293,0.315,0.284,0.229
LCLC-97TM1,0.265,0.183,0.277,0.182,0.131,0.223,0.227,0.313,0.275,0.21,0.217,0.247,0.276,0.274,0.189,0.435,0.409,0.488,0.422,0.384
HCC-15,0.773,0.668,0.749,0.744,0.659,0.754,0.762,0.745,0.731,0.574,0.674,0.648,0.627,0.666,0.702,0.461,0.465,0.522,0.497,0.456
NCI-H650,0.867,0.758,,1.01,0.827,0.341,0.288,0.3,0.35,0.311,0.347,0.31,0.361,0.31,0.307,0.479,0.438,0.413,0.455,0.473
UMC-11,0.843,0.542,0.752,0.844,1.03,0.285,0.304,0.413,0.311,0.305,0.541,0.485,0.633,0.663,0.619,,0.305,0.308,0.315,0.335
NCI-H1651,0.6,0.663,0.561,0.574,0.592,0.536,0.5,0.517,0.567,0.54,0.626,0.649,0.652,0.633,0.509,0.358,0.346,0.297,0.356,0.325
NCI-H1792,0.286,0.256,0.254,0.26,0.249,0.696,0.683,0.584,0.657,0.68,0.56,0.521,0.563,0.461,0.583,0.529,0.261,0.258,0.102,0.371
